{"source": "patent US20130338574A1", "about": "“ORAL MEDICINAL COMPOSITION FOR PATIENTS UNDERGOING PERITONEAL DIALYSIS AND METHOD FOR USING SAME” (TOKAI UNIVERSITY EDUCATIONAL SYSTEM, priority 2010, published 2013)", "test_system": "pentosidine in the peritoneal tissue", "assay": "Peritoneum protective effect: pentosidine in peritoneal tissue of uremic rat models (Experimental Example 4)", "assay_type": "in vivo, rats", "conditions": "oral 30 mg/rat/day, 7 days", "procedure": "The protective effect of oral administration of a pyridoxamine salt on the deterioration of the peritoneum caused by peritoneal dialysis was evaluated. More specifically, uremic rat models were subjected to intraperitoneal administration of a peritoneal dialysis fluid together with oral administration of a pyridoxamine salt, and the concentration of pentosidine in the peritoneal tissue, which was an indicator of tissue degeneration caused by enhanced carbonyl stress, was measured. Pentosidine is an advanced glycation/lipoxidation end product (AGE). Kidney subtotal excision rats were produced in the same manner as in Experimental Example 2. […] The sample for pentosidine measurement prepared in the above manner was subjected to HPLC under the following conditions, and pentosidine contained in the peritoneum was quantitatively analyzed. The quantitative analysis was performed using a standard calibration curve previously prepared by measurement under the following HPLC conditions using standard solutions of synthetic pentosidine of known concentrations. […] Stationary phase: C18 column (Puresil, 4.6×250 mm, 5 μm; Nihon Waters K.K.) Flow rate: 0.8 mL/min Detection: Fluorescence detection (excitation wavelength: 335 nm/absorption wavelength: 385 nm) (fluorescence detector: Shimadzu Corporation) Sample volume: 20 μL"}
{"smiles": "Cc1ncc(CO)c(CN)c1O.Cl.Cl", "note": "[pyridoxamine dihydrochloride, Pyridoxamine dihydrochloride]", "values": [{"measurement": "pentosidine concentration in the peritoneum tissue compared with control group", "setting": "acid peritoneal dialysis fluid", "value": "significantly lower"}, {"measurement": "Pentosidine concentration in peritoneal tissue", "setting": "per mg of peritoneum (wet mass), acid peritoneal dialysis fluid 20 ml i.p., control group 0.065", "value": 0.022, "unit": "pmol/mg"}]}
